Reference: patent US8536166B2, “Inhibitors of Burton's tyrosine kinase” (Roche Palo Alto LLC, priority 2008, dated 2013)
pIC50: −log10 of the molar value.

How the values were obtained:
[1] = biological target: Btk enzyme (His-tagged, full-length) (Homo sapiens (Human), UniProt Q06187); experiment: Bruton's Tyrosine Kinase (Btk) Inhibition Assay; type: biochemical; settings: 33P filtration capture assay, 100 μM ATP, 30 μM biotinylated peptide substrate
Text: The assay is a capture of radioactive ^33P phosphorylated product through filtration. The interactions of Btk, biotinylated SH2 peptide substrate (Src homology), and ATP lead to phosphorylation of the peptide substrate. Biotinylated product is bound streptavidin sepharose beads. All bound, radiolabeled products are detected by scintillation counter.
Plates assayed are 96-well polypropylene (Greiner) and 96-well 1.2 μm hydrophilic PVDF filter plates (Millipore). Concentrations reported here are final assay concentrations: 10-100 μM compounds in DMSO (Burdick and Jackson), 5-10 nM Btk enzyme (His-tagged, full-length), 30 μM peptide substrate (Biotin-Aca-AAAEEIYGEI-NH2), 100 μM ATP (Sigma), 8 mM imidazole (Sigma, pH 7.2), 8 mM glycerol-2-phosphate (Sigma), 200 μM EGTA (Roche Diagnostics), 1 mM MnCl2 (Sigma), 20 mM MgCl2 (Sigma), 0.1 mg/ml BSA (Sigma), 2 mM DTT (Sigma), 1 μCi ^33P ATP (Amersham), 20% streptavidin sepharose beads (Amersham), 50 mM EDTA (Gibco), 2 M NaCl (Gibco), 2 M NaCl w/1% phosphoric acid (Gibco), microscint-20 (Perkin Elmer).
IC50 determinations are calculated from 10 data points per compound utilizing data produced from a standard 96-well plate assay template. One control compound and seven unknown inhibitors were tested on each plate and each plate was run twice. Typically, compounds were diluted in half-log starting at 100 μM and ending at 3 nM. The control compound was staurosporine. Background was counted in the absence of peptide substrate. Total activity was determined in the presence of peptide substrate. The following protocol was used to determine Btk inhibition. • 1) Sample preparation: The test compounds were diluted at half-log increments in assay buffer (imidazole, glycerol-2-phosphate, EGTA, MnCl2, MgCl2, BSA). • 2) Bead preparation • a.) rinse beads by centrifuging at 500 g • b.) reconstitute the beads with PBS and EDTA to produce a 20% bead slurry • 3) Pre-incubate reaction mix without substrate (assay buffer, DTT, ATP, ^33P ATP) and mix with substrate (assay buffer, DTT, ATP, ^33P ATP, peptide substrate) 30° C. for 15 mm. • 4) To start assay, pre-incubate 10 μL Btk in enzyme buffer (imidazole, glycerol-2-phosphate, BSA) and 10 μL of test compounds for 10 min at RT. • 5) Add 30 μL reaction mixture without or with substrate to Btk and compounds. • 6) Incubate 50 μL total assay mix for 30 min at 30° C. • 7) Transfer 40 μL of assay to 150 μL bead slurry in filter plate to stop reaction. • 8) Wash filter plate after 30 min, with following steps • a. 3×250 μL NaCl • b. 3×250 μL NaCl containing 1% phosphoric acid • c. […]

Sequence of Btk enzyme (His-tagged, full-length) (Q06187 whole entry): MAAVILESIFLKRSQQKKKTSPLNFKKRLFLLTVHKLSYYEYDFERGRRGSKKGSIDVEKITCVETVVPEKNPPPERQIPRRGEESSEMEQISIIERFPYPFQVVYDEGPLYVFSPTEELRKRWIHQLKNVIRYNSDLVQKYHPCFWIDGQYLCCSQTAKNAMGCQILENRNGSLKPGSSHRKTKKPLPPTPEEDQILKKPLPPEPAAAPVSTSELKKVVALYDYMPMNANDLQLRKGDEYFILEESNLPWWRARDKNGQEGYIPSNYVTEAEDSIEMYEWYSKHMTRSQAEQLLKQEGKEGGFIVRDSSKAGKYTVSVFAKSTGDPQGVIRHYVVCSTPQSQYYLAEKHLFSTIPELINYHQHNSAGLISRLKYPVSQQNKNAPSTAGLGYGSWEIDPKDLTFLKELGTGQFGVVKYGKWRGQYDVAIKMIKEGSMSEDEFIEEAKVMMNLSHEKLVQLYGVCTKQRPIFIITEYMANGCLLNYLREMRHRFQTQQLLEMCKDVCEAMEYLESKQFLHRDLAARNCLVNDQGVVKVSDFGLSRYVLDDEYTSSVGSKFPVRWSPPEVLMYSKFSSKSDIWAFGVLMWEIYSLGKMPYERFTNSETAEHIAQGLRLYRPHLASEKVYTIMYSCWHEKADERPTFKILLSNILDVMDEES

COC1CCN(C(=O)c2ccc(Nc3nc(-c4cccc(N5CCc6cc(C7CC7)ccc6C5=O)c4CO)cn(C)c3=O)cc2)CC1 [II-13, 6-Cyclopropyl-2-(2-hydroxymethyl-3-{6-[4-(4-methoxy-piperidine-1-carbonyl)-phenylamino]-4-methyl-5-oxo-4,5-dihydro-pyrazin-2-yl}-phenyl)-3,4-dihydro-2H-isoquinolin-1-one] gave a melting point of 146 to 148 °C.

Work on Cn1cc(Nc2nc(-c3cccc(N4CCc5cc(C6CC6)ccc5C4=O)c3CO)cn(C)c2=O)cn1 [II-5, 6-Cyclopropyl-2-{2-hydroxymethyl-3-[4-methyl-6-(1-methyl-1H-pyrazol-4-ylamino)-5-oxo-4,5-dihydro-pyrazin-2-yl]-phenyl}-3,4-dihydro-2H-isoquinolin-1-one] yielded a pIC50 [1] of 7.80.

Cn1cc(-c2cccc(N3CCc4cc(C5CC5)ccc4C3=O)c2CO)nc(Nc2ccc(C(=O)N3CCC(O)CC3)cc2)c1=O [II-12, 6-Cyclopropyl-2-(2-hydroxymethyl-3-{6-[4-(4-hydroxy-piperidine-1-carbonyl)-phenylamino]-4-methyl-5-oxo-4,5-dihydro-pyrazin-2-yl}-phenyl)-3,4-dihydro-2H-isoquinolin-1-one] showed a pIC50 [1] of 8.00 and a melting point of 171 to 173 °C.

Cn1cc(-c2cccc(N3CCc4cc(C5CC5)ccc4C3=O)c2CO)nc(Nc2ccc(C(=O)N3CCCC3)cc2)c1=O [II-10, 6-Cyclopropyl-2-(2-hydroxymethyl-3-{4-methyl-5-oxo-6-[4-(pyrrolidine-1-carbonyl)-phenylamino]-4,5-dihydro-pyrazin-2-yl}-phenyl)-3,4-dihydro-2H-isoquinolin-1-one] showed a melting point of 178 to 180 °C.

Work on CN1CCN(C(=O)c2ccc(Nc3nc(-c4cccc(N5CCc6cc(C7CC7)ccc6C5=O)c4CO)cn(C)c3=O)cc2)CC1 [II-14, 6-Cyclopropyl-2-(2-hydroxymethyl-3-{4-methyl-6-[4-(4-methyl-piperazine-1-carbonyl)-phenylamino]-5-oxo-4,5-dihydro-pyrazin-2-yl}-phenyl)-3,4-dihydro-2H-isoquinolin-1-one] yielded a melting point of 172 to 175 °C.

Work on Cn1cc(-c2cccc(N3CCc4cc(C5CC5)ccc4C3=O)c2CO)nc(Nc2ccc(C(=O)N3CCN(CCO)CC3)cc2)c1=O [II-16, 6-Cyclopropyl-2-[3-(6-{4-[4-(2-hydroxy-ethyl)-piperazine-1-carbonyl]-phenylamino}-4-methyl-5-oxo-4,5-dihydro-pyrazin-2-yl)-2-hydroxymethyl-phenyl]-3,4-dihydro-2H-isoquinolin-1-one] yielded a melting point of 175 to 180.1 °C.

Compound CCN1CCN(C(=O)c2ccc(Nc3nc(-c4cccc(N5CCc6cc(C7CC7)ccc6C5=O)c4CO)cn(C)c3=O)cc2)CC1 [II-20, 6-Cyclopropyl-2-(3-{6-[4-(4-ethyl-piperazine-1-carbonyl)-phenylamino]-4-methyl-5-oxo-4,5-dihydro-pyrazin-2-yl}-2-hydroxymethyl-phenyl)-3,4-dihydro-2H-isoquinolin-1-one] has a melting point of 153 to 155 °C.

Compound CC1CN(C(=O)c2ccc(Nc3nc(-c4cccc(N5CCc6cc(C7CC7)ccc6C5=O)c4CO)cn(C)c3=O)cc2)CC(C)O1 (centres unmarked) [II-17, 6-Cyclopropyl-2-(3-{6-[4-(2,6-dimethyl-morpholine-4-carbonyl)-phenylamino]-4-methyl-5-oxo-4,5-dihydro-pyrazin-2-yl}-2-hydroxymethyl-phenyl)-3,4-dihydro-2H-isoquinolin-1-one] has a melting point of 173 to 175 °C.

In the case of CN(C)C(=O)c1ccc(Nc2nc(-c3cccc(N4CCc5cc(C6CC6)ccc5C4=O)c3CO)cn(C)c2=O)cc1 [II-6, 4-{6-[3-(6-Cyclopropyl-1-oxo-3,4-dihydro-1H-isoquinolin-2-yl)-2-hydroxymethyl-phenyl]-4-methyl-3-oxo-3,4-dihydro-pyrazin-2-ylamino}-N,N-dimethyl-benzamide], the pIC50 [1] was 7.82.

Cn1cc(-c2cccc(N3CCc4cc(C5(F)CC5)ccc4C3=O)c2CO)nc(Nc2ccc(C(=O)N3CCOCC3)cc2)c1=O [II-11, 6-(1-Fluoro-cyclopropyl)-2-(2-hydroxymethyl-3-{4-methyl-6-[4-(morpholine-4-carbonyl)-phenylamino]-5-oxo-4,5-dihydro-pyrazin-2-yl}-phenyl)-3,4-dihydro-2H-isoquinolin-1-one] gave a pIC50 [1] of 8.00 and a melting point of 172 to 174 °C.

Work on CN(CCO)C(=O)c1ccc(Nc2nc(-c3cccc(N4CCc5cc(C6CC6)ccc5C4=O)c3CO)cn(C)c2=O)cc1 [II-15, 4-{6-[3-(6-Cyclopropyl-1-oxo-3,4-dihydro-1H-isoquinolin-2-yl)-2-hydroxymethyl-phenyl]-4-methyl-3-oxo-3,4-dihydro-pyrazin-2-ylamino}-N-(2-hydroxy-ethyl)-N-methyl-benzamide] yielded a melting point of 115 to 117 °C.

CN(C)c1ccc2c(c1)CCN(c1cccc(-c3cn(C)c(=O)c(Nc4ccc5c(c4)OC(F)(F)O5)n3)c1CO)C2=O [II-1, 2-{3-[6-(2,2-Difluoro-benzo[1,3]dioxol-5-ylamino)-4-methyl-5-oxo-4,5-dihydro-pyrazin-2-yl]-2-hydroxymethyl-phenyl}-6-dimethylamino-3,4-dihydro-2H-isoquinolin-1-one] gave a melting point of 145 to 150 °C.
